Each block holds one molecule with its values, some of them ahead of it.
System: 475296-252-R-J1-PDC spheroid viability
Assay: Anticancer human tumor 475296-252-R-J1-PDC patient-derived rectal carcinoma cell line growth inhibition [PI3K]
Conditions: spheroids with HUVEC and MSC; for IC50: curve of first compound; for viability, T/C: stronger effect = lower value
In short: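 Tumor cells grown as multi-cell spheroids with HUVEC endothelial cells and MSC fibroblast-like stroma were treated with targeted agents combined with inavolisib, alpelisib, duvelisib or copanlisib. Doses fell in half-log steps from near clinical Cmax, else from 10 microM. Viability was measured.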

[1] = second compound 0.00316 µM, first compound 0.0316 µM
[2] = second compound 0.00316 µM, first compound 0.1 µM
[3] = second compound 0.00316 µM, first compound 0.316 µM
[4] = second compound 0.00316 µM, first compound 1 µM
[5] = second compound 0.00316 µM, first compound 3.16 µM
[6] = second compound 0.00316 µM, first compound 10 µM
[7] = second compound 0.01 µM, first compound 0.0316 µM
[8] = second compound 0.01 µM, first compound 0.1 µM
[9] = second compound 0.01 µM, first compound 0.316 µM
[10] = second compound 0.01 µM, first compound 1 µM
[11] = second compound 0.01 µM, first compound 3.16 µM
[12] = second compound 0.01 µM, first compound 10 µM
[13] = second compound 0.0316 µM, first compound 0.0316 µM
[14] = second compound 0.0316 µM, first compound 0.1 µM
[15] = second compound 0.0316 µM, first compound 0.316 µM
[16] = second compound 0.0316 µM, first compound 1 µM
[17] = second compound 0.0316 µM, first compound 3.16 µM
[18] = second compound 0.0316 µM, first compound 10 µM
[19] = second compound 0.1 µM, first compound 0.0316 µM
[20] = second compound 0.1 µM, first compound 0.1 µM
[21] = second compound 0.1 µM, first compound 0.316 µM
[22] = second compound 0.1 µM, first compound 1 µM
[23] = second compound 0.1 µM, first compound 3.16 µM
[24] = second compound 0.1 µM, first compound 10 µM
[25] = second compound 0.316 µM, first compound 0.0316 µM
[26] = second compound 0.316 µM, first compound 0.1 µM
[27] = second compound 0.316 µM, first compound 0.316 µM
[28] = second compound 0.316 µM, first compound 1 µM
[29] = second compound 0.316 µM, first compound 3.16 µM
[30] = second compound 0.316 µM, first compound 10 µM
[31] = second compound 1 µM, first compound 0.0316 µM
[32] = second compound 1 µM, first compound 0.1 µM
[33] = second compound 1 µM, first compound 0.316 µM
[34] = second compound 1 µM, first compound 1 µM
[35] = second compound 1 µM, first compound 3.16 µM
[36] = second compound 1 µM, first compound 10 µM
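Further: spheroids exposed to agents for seven days before readout.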

- IC50 (second compound 0.00316 µM): 7.99 µM
- IC50 (second compound 0.01 µM): 2.07 µM
- IC50 (second compound 0.0316 µM): 0.875 µM
- IC50 (second compound 0.1 µM): 0.228 µM
- IC50 (second compound 0.316 µM): 0.134 µM
- IC50 (second compound 1 µM): < 0.0316 µM
SMILES: C#Cc1c(F)ccc2cc(O)cc(-c3ncc4c(N5CC6CCC(C5)N6)nc(OCC56CCCN5CC(F)C6)nc4c3F)c12 (stereo not drawn) + COc1c(OCCCN2CCOCC2)ccc2c3n(c(=NC(=O)c4cnc(N)nc4)nc12)CCN3
- viability, T/C [1]: 85.9%
- viability, T/C [2]: 87.5%
- viability, T/C [3]: 79.7%
- viability, T/C [4]: 75.3%
- viability, T/C [5]: 59.2%
- viability, T/C [6]: 47.8%
- viability, T/C [7]: 89.5%
- viability, T/C [8]: 90.8%
- viability, T/C [9]: 68%
- viability, T/C [10]: 57.2%
- viability, T/C [11]: 48.9%
- viability, T/C [12]: 39.9%
- viability, T/C [13]: 80.6%
- viability, T/C [14]: 76.4%
- viability, T/C [15]: 65.4%
- viability, T/C [16]: 46.1%
- viability, T/C [17]: 31.1%
- viability, T/C [18]: 14.3%
- viability, T/C [19]: 67%
- viability, T/C [20]: 68.9%
- viability, T/C [21]: 40.7%
- viability, T/C [22]: 23%
- viability, T/C [23]: 8.13%
- viability, T/C [24]: 3.98%
- viability, T/C [25]: 64.5%
- viability, T/C [26]: 57.4%
- viability, T/C [27]: 28.3%
- viability, T/C [28]: 7.5%
- viability, T/C [29]: 3.69%
- viability, T/C [30]: 2.51%
- viability, T/C [31]: 45.9%
- viability, T/C [32]: 34.2%
- viability, T/C [33]: 21.3%
- viability, T/C [34]: 6.91%
- viability, T/C [35]: 5.05%
- viability, T/C [36]: 4.55%

- IC50 (second compound 0.00316 µM): > 10 µM
- IC50 (second compound 0.01 µM): > 10 µM
- IC50 (second compound 0.0316 µM): > 10 µM
- IC50 (second compound 0.1 µM): > 10 µM
- IC50 (second compound 0.316 µM): > 10 µM
- IC50 (second compound 1 µM): > 10 µM
SMILES: C=CC(=O)N1CCN(c2nc(=O)n(-c3c(C)ccnc3C(C)C)c3nc(-c4c(O)cccc4F)c(F)cc23)C(C)C1 (stereo not drawn) + COc1c(OCCCN2CCOCC2)ccc2c3n(c(=NC(=O)c4cnc(N)nc4)nc12)CCN3
- viability, T/C [1]: 102%
- viability, T/C [2]: 101%
- viability, T/C [3]: 101%
- viability, T/C [4]: 99.4%
- viability, T/C [5]: 110%
- viability, T/C [6]: 106%
- viability, T/C [7]: 94.3%
- viability, T/C [8]: 99.2%
- viability, T/C [9]: 93.8%
- viability, T/C [10]: 105%
- viability, T/C [11]: 106%
- viability, T/C [12]: 98.1%
- viability, T/C [13]: 94.4%
- viability, T/C [14]: 91.1%
- viability, T/C [15]: 91.2%
- viability, T/C [16]: 98.7%
- viability, T/C [17]: 91.4%
- viability, T/C [18]: 108%
- viability, T/C [19]: 91.6%
- viability, T/C [20]: 85.5%
- viability, T/C [21]: 84%
- viability, T/C [22]: 97.8%
- viability, T/C [23]: 86%
- viability, T/C [24]: 87.1%
- viability, T/C [25]: 75.7%
- viability, T/C [26]: 78.3%
- viability, T/C [27]: 64.9%
- viability, T/C [28]: 83.6%
- viability, T/C [29]: 77.5%
- viability, T/C [30]: 81%
- viability, T/C [31]: 58.2%
- viability, T/C [32]: 65.7%
- viability, T/C [33]: 63.7%
- viability, T/C [34]: 63.9%
- viability, T/C [35]: 58.1%
- viability, T/C [36]: 69.8%

- IC50 (second compound 0.00316 µM): > 10 µM
- IC50 (second compound 0.01 µM): > 10 µM
- IC50 (second compound 0.0316 µM): > 10 µM
- IC50 (second compound 0.1 µM): > 10 µM
- IC50 (second compound 0.316 µM): > 10 µM
- IC50 (second compound 1 µM): > 10 µM
SMILES: CC(Cn1ccc(-c2ccc(C#N)c(Cl)c2)n1)NC(=O)c1cc(C(C)O)[nH]n1 (stereo not drawn) + COc1c(OCCCN2CCOCC2)ccc2c3n(c(=NC(=O)c4cnc(N)nc4)nc12)CCN3
- viability, T/C [1]: 106%
- viability, T/C [2]: 99.3%
- viability, T/C [3]: 103%
- viability, T/C [4]: 91.7%
- viability, T/C [5]: 107%
- viability, T/C [6]: 94.7%
- viability, T/C [7]: 102%
- viability, T/C [8]: 101%
- viability, T/C [9]: 111%
- viability, T/C [10]: 95.8%
- viability, T/C [11]: 102%
- viability, T/C [12]: 87.7%
- viability, T/C [13]: 97%
- viability, T/C [14]: 87.6%
- viability, T/C [15]: 89.7%
- viability, T/C [16]: 81.2%
- viability, T/C [17]: 90.6%
- viability, T/C [18]: 88.2%
- viability, T/C [19]: 84.6%
- viability, T/C [20]: 88.7%
- viability, T/C [21]: 77.8%
- viability, T/C [22]: 95.3%
- viability, T/C [23]: 91.6%
- viability, T/C [24]: 83%
- viability, T/C [25]: 73.8%
- viability, T/C [26]: 74%
- viability, T/C [27]: 73.4%
- viability, T/C [28]: 71.7%
- viability, T/C [29]: 79.1%
- viability, T/C [30]: 67.3%
- viability, T/C [31]: 65.2%
- viability, T/C [32]: 68.7%
- viability, T/C [33]: 75.8%
- viability, T/C [34]: 62.2%
- viability, T/C [35]: 71%
- viability, T/C [36]: 64%

- IC50 (second compound 0.00316 µM): > 10 µM
- IC50 (second compound 0.01 µM): > 10 µM
- IC50 (second compound 0.0316 µM): > 10 µM
- IC50 (second compound 0.1 µM): 7.77 µM
- IC50 (second compound 0.316 µM): 5.48 µM
- IC50 (second compound 1 µM): 1.4 µM
SMILES: CC1(C)CCC(Nc2ncc(C(F)(F)F)c(-c3c[nH]c4c(P(C)(C)=O)c(C#N)ccc34)n2)CN1 (stereo not drawn) + COc1c(OCCCN2CCOCC2)ccc2c3n(c(=NC(=O)c4cnc(N)nc4)nc12)CCN3
- viability, T/C [1]: 91.7%
- viability, T/C [2]: 93.5%
- viability, T/C [3]: 115%
- viability, T/C [4]: 130%
- viability, T/C [5]: 147%
- viability, T/C [6]: 63.2%
- viability, T/C [7]: 101%
- viability, T/C [8]: 96%
- viability, T/C [9]: 112%
- viability, T/C [10]: 119%
- viability, T/C [11]: 140%
- viability, T/C [12]: 52.2%
- viability, T/C [13]: 85.3%
- viability, T/C [14]: 86.7%
- viability, T/C [15]: 95%
- viability, T/C [16]: 103%
- viability, T/C [17]: 125%
- viability, T/C [18]: 56.1%
- viability, T/C [19]: 79.9%
- viability, T/C [20]: 85.4%
- viability, T/C [21]: 91.7%
- viability, T/C [22]: 82%
- viability, T/C [23]: 98.5%
- viability, T/C [24]: 39.4%
- viability, T/C [25]: 69.1%
- viability, T/C [26]: 76.8%
- viability, T/C [27]: 72%
- viability, T/C [28]: 78.1%
- viability, T/C [29]: 74.3%
- viability, T/C [30]: 23.7%
- viability, T/C [31]: 57.4%
- viability, T/C [32]: 50.5%
- viability, T/C [33]: 49.8%
- viability, T/C [34]: 54.9%
- viability, T/C [35]: 44.2%
- viability, T/C [36]: 9.59%

— PubChem BioAssay AID1963980 (Molecular Pharmacology Branch, DTP, NCI, 2024)
